Read-outs that look alike come from different tables or passages of the source.
Experiments:
[1] = system: MCF-7 (human breast cancer); experiment: Cytotoxicity versus MCF-7 cell line (MTT assay); settings: MCF7, read-out: MCF-7 (IC50 ± SD, uM)
Method: IC50 values were recorded using the Boltzman sigmoidal concentration–response curve equation using the nonlinear regression fitting models by GraphPad, Prism version 5 (GraphPad Software Inc., La Jolla, CA). MTT assay for MCF-7 cell lines. Cell line cells were obtained from American Type Culture Collection. Cells were cultured using DMEM media (Invitrogen/Life Technologies) supplemented with 10% FBS (Hyclone), 10 ug/ml of insulin (Sigma), and 1% penicillin–streptomycin. All the other chemicals and reagents were purchased from Sigma or Invitrogen. Cells were seeded in plates (cells density 1.2–1.8 × 10,000 cells/well) in a volume of 100 μl full-growth medium + 100 μl of the tested scaffold per well in a 96-well plate for 24 h before the application of the MTT assay protocol as reported, supplementary information.

UO-31 = experiment: NCI one-dose assay, UO-31; format: cell-based; settings: Homo sapiens; UO-31; 10 µM single dose, 48 h incubation; read-out: cell growth inhibition % (GI %)
How it was run: (§1)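 One 10 µM concentration was applied in the NCI in vitro panel of 60 human tumour lines from nine cancer types, and cytotoxicity was measured after 48 h.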

K-562 = experiment: NCI one-dose assay, K-562; format: cell-based; settings: Homo sapiens, K562; K-562; 10 µM single dose, 48 h incubation; read-out: cell growth inhibition % (GI %)
How it was run: as §1

NCI-H23 = experiment: NCI one-dose assay, NCI-H23; format: cell-based; settings: Homo sapiens; NCI-H23; 10 µM single dose, 48 h incubation; read-out: cell growth inhibition % (GI %)
Method: (§2) All novel scaffolds 6a–j were carefully selected by the National Cancer Institute (NCI), Bethesda, USA, to elucidate their cytotoxic activity versus 60 human cancer cell lines at 10 µM as a single-dose concentration after a 48 h incubation period.
(§3) National Cancer Institution selected all the synthesized 6a–j (NCI), Bethesda, USA, for in vitro one-dose antitumor assay. The methodology protocol for the NCI anticancer screening was reported in detail elsewhere (http://www.dtp.nci.nih.gov). The anticancer assay was performed in full NCI 60 cell lines extracted from nine tumor cell lines, including leukemia, melanoma, lung, colon, CNS, ovarian, renal, prostate, and breast cancer cell lines.

MOLT-4 = experiment: NCI one-dose assay, MOLT-4; format: cell-based; settings: Homo sapiens; MOLT-4; 10 µM single dose, 48 h incubation; read-out: cell growth inhibition % (GI %)
How it was run: as §1

tubulin = experiment: Tubulin polymerization inhibition assay; format: biochemical
[2] = system: SNB-75 cells (CNS cancer cell line); experiment: NCI one-dose assay, SNB-75; format: cell-based; settings: Homo sapiens; SNB-75 (CNS Cancer), 10 uM single dose; read-out: Growth inhibition %
How it was run: as §1

LOX IMVI = experiment: NCI one-dose assay, LOX IMVI; format: cell-based; settings: Homo sapiens; LOX IMVI; 10 µM single dose, 48 h incubation; read-out: cell growth inhibition % (GI %)
Method: as §2, §3

T-47D = experiment: NCI one-dose assay, T-47D; format: cell-based; settings: Homo sapiens, T47D; T-47D; 10 µM single dose, 48 h incubation; read-out: cell growth inhibition % (GI %)
How it was run: as §1

MCF-7 = experiment: NCI one-dose assay, MCF-7; format: cell-based, human; settings: MCF-7, 10 µM single dose, 48 h incubation
How it was run: as §1

[3] = system: 60 human cancer cell lines; experiment: NCI one-dose assay against sixty NCI cancer cell lines; format: cell-based
How it was run: as §1

[4] = system: HOP-92 (non-small cell lung cancer cell line); experiment: NCI one-dose assay, HOP-92; format: cell-based; settings: Homo sapiens; HOP-92 (Non-Small Cell Lung Cancer), 10 uM single dose; read-out: Growth inhibition %
How it was run: as §1

A549/ATCC = experiment: NCI one-dose assay, A549/ATCC; format: cell-based; settings: Homo sapiens, 10 µM single dose, 48 h incubation, read-out: cell growth inhibition % (GI %)
Method: as §2, §3

SR = experiment: NCI one-dose assay, SR; format: cell-based; settings: Homo sapiens; SR; 10 µM single dose, 48 h incubation; read-out: cell growth inhibition % (GI %)
How it was run: as §1

SK-MEL-5 = experiment: NCI one-dose assay, SK-MEL-5; format: cell-based; settings: Homo sapiens; SK-MEL-5; 10 µM single dose, 48 h incubation; read-out: cell growth inhibition % (GI %)
Method: as §2, §3

O=C1Nc2ccccc2C1=Cc1ccc(OCC(=O)c2ccc(Br)cc2)cc1 [Compound 6f, 3-{4-[2-(4-Bromophenyl)-2-oxoethoxy]benzylidene}indolin-2-one]
IC50 [1]: 14.8 ± 0.47 µM | inhibition at 10 µM (UO-31): 51.5% | inhibition at 10 µM (K-562): 72.2% | inhibition at 10 µM (NCI-H23): 49.1% | inhibition at 10 µM (MOLT-4): 91.5% | %inh Tub (tubulin; conc 0.1 (uM printed only in the CA-4 head)): 7% | %inh Tub (tubulin; conc 1 (uM printed only in the CA-4 head)): 15% | %inh Tub (tubulin; conc 10 (uM printed only in the CA-4 head)): 56% | %inh Tub (tubulin; conc 100 (uM printed only in the CA-4 head)): 80% | IC50 (tubulin; read-out: Tubulin polymerization inhibition (IC50 ± SD)): 7.99 ± 0.49 µM | inhibition at 10 µM [2]: 20.4% | inhibition at 10 µM (LOX IMVI): 71.1% | inhibition at 10 µM (T-47D): 53% | inhibition at 10 µM (MCF-7; Homo sapiens, MCF7, 48 h, read-out: cell growth inhibition % (GI %)): 72.6% | cell growth inhibition % (GI %) (MCF-7): 70.30% | inhibition at 10 µM ([3]; 786-0 (Renal Cancer), 10 uM single dose, read-out: Growth inhibition %): 10.2% | inhibition at 10 µM ([3]; ACHN (Renal Cancer), 10 uM single dose, read-out: Growth inhibition %): 30% | inhibition at 10 µM ([3]; BT-549 (Breast Cancer), 10 uM single dose, read-out: Growth inhibition %): 43.4% | inhibition at 10 µM ([3]; CAKI-1 (Renal Cancer), 10 uM single dose, read-out: Growth inhibition %): 32.2% | inhibition at 10 µM ([3]; CCRF-CEM (Leukemia), 10 uM single dose, read-out: Growth inhibition %): 41.8% | inhibition at 10 µM ([3]; COLO 205 (Colon Cancer), 10 uM single dose, read-out: Growth inhibition %): 34.1% | inhibition at 10 µM ([3]; DU-145 (Prostate Cancer), 10 uM single dose, read-out: Growth inhibition %): 14.4% | inhibition at 10 µM ([3]; EKVX (Non-Small Cell Lung Cancer), 10 uM single dose, read-out: Growth inhibition %): 34.4% | inhibition at 10 µM ([3]; HCC-2998 (Colon Cancer), 10 uM single dose, read-out: Growth inhibition %): 14.9% | inhibition at 10 µM ([3]; HCT-15 (Colon Cancer), 10 uM single dose, read-out: Growth inhibition %): 54.6% | inhibition at 10 µM ([3]; HCT-116 (Colon Cancer), 10 uM single dose, read-out: Growth inhibition %): 44.6% | inhibition at 10 µM ([3]; HL-60(TB) (Leukemia), 10 uM single dose, read-out: Growth inhibition %): 59.6% | inhibition at 10 µM ([3]; HS 578T (Breast Cancer), 10 uM single dose, read-out: Growth inhibition %): 15.6% | inhibition at 10 µM ([3]; HT-29, HT29 (Colon Cancer), 10 uM single dose, read-out: Growth inhibition %): 17.2% | inhibition at 10 µM ([3]; IGROV-1, IGROV1 (Ovarian Cancer), 10 uM single dose, read-out: Growth inhibition %): 21.7% | inhibition at 10 µM ([3]; KM12 (Colon Cancer), 10 uM single dose, read-out: Growth inhibition %): 22.7% | inhibition at 10 µM ([3]; M14 (Melanoma), 10 uM single dose, read-out: Growth inhibition %): 26.9% | inhibition at 10 µM ([3]; MALME-3M (Melanoma), 10 uM single dose, read-out: Growth inhibition %): 19% | inhibition at 10 µM ([3]; MDA-MB-231, read-out: Growth inhibition %): 17.8% | inhibition at 10 µM ([3]; MDA-MB-435 (Melanoma), 10 uM single dose, read-out: Growth inhibition %): 29.5% | inhibition at 10 µM ([3]; MDA-MB-468 (Breast Cancer), 10 uM single dose, read-out: Growth inhibition %): 47.6% | inhibition at 10 µM ([3]; NCI-H226 (Non-Small Cell Lung Cancer), 10 uM single dose, read-out: Growth inhibition %): 28.4% | inhibition at 10 µM ([3]; NCI-H322M (Non-Small Cell Lung Cancer), 10 uM single dose, read-out: Growth inhibition %): 12.5% | inhibition at 10 µM ([3]; NCI-H460 (Non-Small Cell Lung Cancer), 10 uM single dose, read-out: Growth inhibition %): 41.5% | inhibition at 10 µM ([3]; NCI-H522 (Non-Small Cell Lung Cancer), 10 uM single dose, read-out: Growth inhibition %): 38.6% | inhibition at 10 µM ([3]; OVCAR-3 (Ovarian Cancer), 10 uM single dose, read-out: Growth inhibition %): 22.5% | inhibition at 10 µM ([3]; OVCAR-4 (Ovarian Cancer), 10 uM single dose, read-out: Growth inhibition %): 41.8% | inhibition at 10 µM ([3]; OVCAR-8 (Ovarian Cancer), 10 uM single dose, read-out: Growth inhibition %): 30.4% | inhibition at 10 µM ([3]; PC-3 (Prostate Cancer), 10 uM single dose, read-out: Growth inhibition %): 37.6% | inhibition at 10 µM ([3]; RPMI-8226 (Leukemia), 10 uM single dose, read-out: Growth inhibition %): 50.8% | inhibition at 10 µM ([3]; RXF 393 (Renal Cancer), 10 uM single dose, read-out: Growth inhibition %): 32.4% | inhibition at 10 µM ([3]; SF-295 (CNS Cancer), 10 uM single dose, read-out: Growth inhibition %): 41.4% | inhibition at 10 µM ([3]; SF-539 (CNS Cancer), 10 uM single dose, read-out: Growth inhibition %): 18.5% | inhibition at 10 µM ([3]; SK-MEL-2 (Melanoma), 10 uM single dose, read-out: Growth inhibition %): 27.6% | inhibition at 10 µM ([3]; SK-MEL-28 (Melanoma), 10 uM single dose, read-out: Growth inhibition %): 19.9% | inhibition at 10 µM ([3]; SN12C (Renal Cancer), 10 uM single dose, read-out: Growth inhibition %): 37.3% | inhibition at 10 µM ([3]; SNB-19 (CNS Cancer), 10 uM single dose, read-out: Growth inhibition %): 20.4% | inhibition at 10 µM ([3]; SW-620 (Colon Cancer), 10 uM single dose, read-out: Growth inhibition %): 21.9% | inhibition at 10 µM ([3]; U-251, U251 (CNS Cancer), 10 uM single dose, read-out: Growth inhibition %): 28.5% | inhibition at 10 µM ([3]; UACC-62 (Melanoma), 10 uM single dose, read-out: Growth inhibition %): 47.4% | inhibition at 10 µM ([3]; UACC-257 (Melanoma), 10 uM single dose, read-out: Growth inhibition %): 26.4% | inhibition at 10 µM [4]: 24.5% | inhibition at 10 µM (A549/ATCC): 41.6% | inhibition at 10 µM (SR): 63.7% | inhibition at 10 µM (SK-MEL-5): 71.1%

Reference: PMC11070402, “New antiproliferative 3-substituted oxindoles inhibiting EGFR/VEGFR-2 and tubulin polymerization” (Molecular Diversity, 2023)
